Like-named read-outs stand apart in the source and are kept apart here.
Legend:
[1] = Distribution coefficient logD7.4; type: physicochemical; conditions: pH 7.4

CN1C(=O)[C@H](CCCCN)NC(=O)[C@H](CCCN)NCc2cccnc2Sc2cccc(-c3ccc(C(=O)O)cc3)c2CNC(=O)[C@@H]1Cc1c[nH]c2ccccc12 [zosurabalpin]
32 to 64 µM: MIC_value (A. baumannii; ROB08706 clone 1D1, run ABR06_3280_MHB, evolved in MHB)
128 µM: MIC_value (A. baumannii; ATCC 17978 clone 1D1, run AB17978_3280_HS, evolved in HS/MHB) | MIC_value (A. baumannii; ATCC 17978 clone 1D3, run AB17978_3280_HS, evolved in HS/MHB) | MIC_value (A. baumannii; ROB08705 clone 4B1, run ABR05_3280_HS, evolved in HS_MHB)
<2 µM: MIC_value (A. baumannii; ATCC 19606 clone 5E5, run AB19606_3280_HS, evolved in HS_MHB)
32 µM: MIC_value (A. baumannii; ATCC 17978 clone 2D3, run AB17978_3280_HS, evolved in HS/MHB) | MIC_value (A. baumannii; ATCC 17978 clone 3D1, run AB17978_3280_HS, evolved in HS/MHB) | MIC_value (A. baumannii; ATCC 17978 clone 6E1, run AB17978_3280_HS, evolved in HS/MHB) | MIC_value (A. baumannii; ATCC 17978 clone 6E3, run AB17978_3280_HS, evolved in HS/MHB) | MIC_value (A. baumannii; ATCC 17978 clone 6E4, run AB17978_3280_HS, evolved in HS/MHB) | MIC_value (A. baumannii; ATCC 17978 clone 6E5, run AB17978_3280_HS, evolved in HS/MHB) | MIC_value (A. baumannii; ATCC 19606 clone 5C4, run AB19606_3280_HS, evolved in HS_MHB) | MIC_value (A. baumannii; ROB08705 clone 5C3, run ABR05_3280_HS, evolved in HS_MHB) | MIC_value (A. baumannii; ROB08706 clone 2C1, run ABR06_3280_MHB, evolved in MHB) | MIC_value (A. baumannii; ROB08706 clone 2E1, run ABR06_3280_HS, evolved in HS_MHB)
0.25 µM: MIC_WT (A. baumannii; A. baumannii ATCC 19606, wild type (parental strain))
>32 µM: MIC_value (A. baumannii; ATCC 17978 clone 5E1, run AB17978_3280_MHB, evolved in MHB) | MIC_value (A. baumannii; ROB08705 clone 2C1, run ABR05_3280_MHB, evolved in MHB)
8 µM: MIC_value (A. baumannii; ATCC 17978 clone 2C2, run AB17978_3280_HS, evolved in HS/MHB) | MIC_value (A. baumannii; ATCC 17978 clone 2C4, run AB17978_3280_MHB, evolved in MHB) | MIC_value (A. baumannii; ATCC 17978 clone 2D2, run AB17978_3280_MHB, evolved in MHB) | MIC_value (A. baumannii; ATCC 17978 clone 6E4, run AB17978_3280_MHB, evolved in MHB) | MIC_value (A. baumannii; ATCC 17978 clone 6E6, run AB17978_3280_HS, evolved in HS/MHB) | MIC_value (A. baumannii; ATCC 17978 clone 6E9, run AB17978_3280_HS, evolved in HS/MHB) | MIC_value (A. baumannii; ATCC 19606 clone 1C2, run AB19606_3280_HS, evolved in HS_MHB) | MIC_value (A. baumannii; ATCC 19606 clone 1C4, run AB19606_3280_HS, evolved in HS_MHB) | MIC_value (A. baumannii; ATCC 19606 clone 2E3, run AB19606_3280_MHB, evolved in MHB) | MIC_value (A. baumannii; ATCC 19606 clone 5E3, run AB19606_3280_HS, evolved in HS_MHB) | MIC_value (A. baumannii; ATCC 19606 clone 5E7, run AB19606_3280_HS, evolved in HS_MHB) | MIC_value (A. baumannii; ATCC 19606 clone 6E1, run AB19606_3280_HS, evolved in HS_MHB) | MIC_value (A. baumannii; ROB08705 clone 2D1, run ABR05_3280_MHB, evolved in MHB) | MIC_value (A. baumannii; ROB08705 clone 5C5, run ABR05_3280_HS, evolved in HS_MHB)
>128 µM: MIC_value (A. baumannii; ATCC 17978 clone 1F1, run AB17978_3280_MHB, evolved in MHB) | MIC_value (A. baumannii; ATCC 19606 clone 5F1, run AB19606_3280_MHB, evolved in MHB)
1 µM: MIC_value (A. baumannii; ATCC 17978 clone 5B1, run AB17978_3280_HS, evolved in HS/MHB) | MIC_value (A. baumannii; ROB08705 clone 3B6, run ABR05_3280_HS, evolved in HS_MHB)
2 µM: MIC_value (A. baumannii; ATCC 17978 clone 2C1, run AB17978_3280_MHB, evolved in MHB) | MIC_value (A. baumannii; ATCC 19606 clone 3D1, run AB19606_3280_MHB, evolved in MHB) | MIC_value (A. baumannii; ROB08705 clone 3B5, run ABR05_3280_HS, evolved in HS_MHB) | MIC_value (A. baumannii; ROB08706 clone 2D1, run ABR06_3280_HS, evolved in HS_MHB) | MIC_value (A. baumannii; ROB08706 clone 2D7, run ABR06_3280_HS, evolved in HS_MHB)
4 to 8 µM: MIC_value (A. baumannii; ROB08705 clone 3B3, run ABR05_3280_HS, evolved in HS_MHB) | MIC_value (A. baumannii; ROB08706 clone 1E1, run ABR06_3280_HS, evolved in HS_MHB) | MIC_value (A. baumannii; ROB08706 clone 4D2, run ABR06_3280_MHB, evolved in MHB) | MIC_value (A. baumannii; ROB08706 clone 5D3, run ABR06_3280_MHB, evolved in MHB)
8 to 16 µM: MIC_value (A. baumannii; ROB08705 clone 3B1, run ABR05_3280_MHB, evolved in MHB) | MIC_value (A. baumannii; ROB08706 clone 4D1, run ABR06_3280_MHB, evolved in MHB)
64 µM: MIC_value (A. baumannii; ATCC 17978 clone 4D1, run AB17978_3280_MHB, evolved in MHB) | MIC_value (A. baumannii; ATCC 17978 clone 5C1, run AB17978_3280_HS, evolved in HS/MHB) | MIC_value (A. baumannii; ATCC 19606 clone 2C1, run AB19606_3280_HS, evolved in HS_MHB) | MIC_value (A. baumannii; ATCC 19606 clone 2C3, run AB19606_3280_HS, evolved in HS_MHB) | MIC_value (A. baumannii; ATCC 19606 clone 3F1, run AB19606_3280_MHB, evolved in MHB) | MIC_value (A. baumannii; ATCC 19606 clone 4C7, run AB19606_3280_HS, evolved in HS_MHB) | MIC_value (A. baumannii; ROB08706 clone 1E2, run ABR06_3280_HS, evolved in HS_MHB)
–2.46: logD7.4 [1]
0.06 µM: MIC_WT (A. baumannii; A. baumannii ATCC 17978, wild type (parental strain))
4 µM: MIC_value (A. baumannii; ATCC 17978 clone 2C3, run AB17978_3280_HS, evolved in HS/MHB) | MIC_value (A. baumannii; ATCC 17978 clone 6E1, run AB17978_3280_MHB, evolved in MHB) | MIC_value (A. baumannii; ATCC 19606 clone 4C1, run AB19606_3280_HS, evolved in HS_MHB) | MIC_value (A. baumannii; ROB08705 clone 1C1, run ABR05_3280_HS, evolved in HS_MHB) | MIC_value (A. baumannii; ROB08705 clone 3B1, run ABR05_3280_HS, evolved in HS_MHB) | MIC_value (A. baumannii; ROB08705 clone 4B2, run ABR05_3280_HS, evolved in HS_MHB) | MIC_value (A. baumannii; ROB08705 clone 4D1, run ABR05_3280_MHB, evolved in MHB) | MIC_value (A. baumannii; ROB08705 clone 5C2, run ABR05_3280_HS, evolved in HS_MHB) | MIC_value (A. baumannii; ROB08706 clone 2C3, run ABR06_3280_MHB, evolved in MHB) | MIC_value (A. baumannii; ROB08706 clone 2D5, run ABR06_3280_HS, evolved in HS_MHB) | MIC_value (A. baumannii; ROB08706 clone 2D6, run ABR06_3280_HS, evolved in HS_MHB) | MIC_value (A. baumannii; ROB08706 clone 3B3, run ABR06_3280_MHB, evolved in MHB) | MIC_value (A. baumannii; ROB08706 clone 3E1, run ABR06_3280_HS, evolved in HS_MHB) | MIC_value (A. baumannii; ROB08706 clone 4E1, run ABR06_3280_HS, evolved in HS_MHB) | MIC_value (A. baumannii; ROB08706 clone 5C1, run ABR06_3280_MHB, evolved in MHB)
0.13 µM: MIC_WT (A. baumannii; A. baumannii ROB08705, wild type (parental strain))
1.0 µM: MIC_WT (A. baumannii; A. baumannii ROB08706, wild type (parental strain))
16 µM: MIC_value (A. baumannii; ATCC 17978 clone 1E3, run AB17978_3280_MHB, evolved in MHB) | MIC_value (A. baumannii; ATCC 17978 clone 2C1, run AB17978_3280_HS, evolved in HS/MHB) | MIC_value (A. baumannii; ATCC 17978 clone 6E2, run AB17978_3280_HS, evolved in HS/MHB) | MIC_value (A. baumannii; ATCC 19606 clone 1C3, run AB19606_3280_HS, evolved in HS_MHB) | MIC_value (A. baumannii; ATCC 19606 clone 2C6, run AB19606_3280_HS, evolved in HS_MHB) | MIC_value (A. baumannii; ATCC 19606 clone 2E1, run AB19606_3280_MHB, evolved in MHB) | MIC_value (A. baumannii; ATCC 19606 clone 2E2, run AB19606_3280_MHB, evolved in MHB) | MIC_value (A. baumannii; ATCC 19606 clone 2E6, run AB19606_3280_MHB, evolved in MHB) | MIC_value (A. baumannii; ATCC 19606 clone 4C2, run AB19606_3280_HS, evolved in HS_MHB) | MIC_value (A. baumannii; ATCC 19606 clone 5E2, run AB19606_3280_HS, evolved in HS_MHB) | MIC_value (A. baumannii; ATCC 19606 clone 5E6, run AB19606_3280_HS, evolved in HS_MHB) | MIC_value (A. baumannii; ATCC 19606 clone 5F2, run AB19606_3280_MHB, evolved in MHB) | MIC_value (A. baumannii; ATCC 19606 clone 5F3, run AB19606_3280_MHB, evolved in MHB) | MIC_value (A. baumannii; ROB08705 clone 3B4, run ABR05_3280_HS, evolved in HS_MHB)
